Measurements: article PMC3234165 (Biochemistry, 2011)
Like-named read-outs stand apart in the source and are kept apart here.

Experiments:
[1] = biological target: T1, sigma-2 receptor (sigma-2 sites) (Rattus norvegicus, UniProt Q5U3Y7); test: Competitive displacement of [3H]-DTG binding, rat liver membranes; conditions: for KI sigma-2 sites: rat liver membranes in the presence of 100 nM (+)-pentazocine, [3H]-DTG; for sigma-2/sigma-1: ratio from the KI value of sigma-1 and sigma-2 sites (membranes)
T1 sequence (Q5U3Y7 1-176): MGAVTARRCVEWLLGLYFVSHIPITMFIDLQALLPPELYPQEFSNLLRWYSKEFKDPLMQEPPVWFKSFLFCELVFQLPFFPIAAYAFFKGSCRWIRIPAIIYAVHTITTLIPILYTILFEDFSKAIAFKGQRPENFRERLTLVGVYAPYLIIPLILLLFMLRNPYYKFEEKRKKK

[2] = biological target: pure guinea pig sigma-1 receptor (Cavia porcellus, UniProt Q60492); test: Competitive displacement of [3H]-; assay type: binding
Kv1.4 potassium channel = Kv1.4 potassium channel (Rattus norvegicus, UniProt P15385+Q9R0C9); test: Whole cell patch clamp, HEK-293 cells co-expressing Kv1.4 and sigma-1 receptor; assay type: cell-based; conditions: for average inhibition of the Kv1.4 potassium channel: concentrations up to 300 μM, HEK-293 with Kv1.4 and sigma-1 receptor
[3] = biological target: NET (norepinephrine transporter) (Homo sapiens, UniProt P23975); test: NIMH PDSP secondary binding assay
HT-29 = test: Multiplex cytotoxicity assay; assay type: cell-based; conditions: Homo sapiens, HT-29, read-out: IC50 HT-29
caspases 3/7, 8, and 9 = test: Caspase activation potential; assay type: cell-based; conditions: data not shown
[4] = biological target: T2, α-1A (α-adrenergic receptor subtype 1A) (Homo sapiens, UniProt P35348); test: NIMH PDSP secondary binding assay
T2 sequence (P35348 1-466): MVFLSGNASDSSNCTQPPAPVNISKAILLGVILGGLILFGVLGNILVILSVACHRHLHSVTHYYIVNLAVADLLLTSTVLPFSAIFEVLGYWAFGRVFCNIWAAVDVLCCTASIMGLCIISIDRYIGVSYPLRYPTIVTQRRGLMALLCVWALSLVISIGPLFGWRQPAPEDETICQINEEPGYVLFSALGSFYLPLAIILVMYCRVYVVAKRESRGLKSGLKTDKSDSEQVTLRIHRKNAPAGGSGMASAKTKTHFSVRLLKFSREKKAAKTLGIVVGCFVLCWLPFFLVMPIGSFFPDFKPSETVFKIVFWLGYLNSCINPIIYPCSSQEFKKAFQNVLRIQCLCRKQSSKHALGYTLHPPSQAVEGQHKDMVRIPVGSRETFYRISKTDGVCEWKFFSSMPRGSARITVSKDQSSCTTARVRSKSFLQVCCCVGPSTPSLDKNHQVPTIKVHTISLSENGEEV

[5] = biological target: H3 (histamine receptor type 3) (Homo sapiens, UniProt Q9Y5N1); test: NIMH PDSP secondary binding assay
Sig-1R, sigma-1 receptor = Sig-1R, sigma-1 receptor (Rattus norvegicus, UniProt Q9R0C9); test: NIMH PDSP secondary binding assay
[6] = biological target: D1 (dopamine receptor type 1) (Homo sapiens, UniProt P21728); test: NIMH PDSP secondary binding assay
[7] = biological target: 5HT2B (serotonin receptor subtype 2B) (Homo sapiens, UniProt P41595); test: NIMH PDSP secondary binding assay
[8] = biological target: β-2 (β-adrenergic receptor subtype 2) (Homo sapiens, UniProt P07550); test: NIMH PDSP secondary binding assay
[9] = biological target: H2 (histamine receptor type 2) (Homo sapiens, UniProt P25021); test: NIMH PDSP secondary binding assay
[10] = biological target: T3, 5HT1A (serotonin receptor subtype 1A) (Homo sapiens, UniProt P08908); test: NIMH PDSP secondary binding assay; conditions: KI 5HT1A
T3 sequence (P08908 1-422): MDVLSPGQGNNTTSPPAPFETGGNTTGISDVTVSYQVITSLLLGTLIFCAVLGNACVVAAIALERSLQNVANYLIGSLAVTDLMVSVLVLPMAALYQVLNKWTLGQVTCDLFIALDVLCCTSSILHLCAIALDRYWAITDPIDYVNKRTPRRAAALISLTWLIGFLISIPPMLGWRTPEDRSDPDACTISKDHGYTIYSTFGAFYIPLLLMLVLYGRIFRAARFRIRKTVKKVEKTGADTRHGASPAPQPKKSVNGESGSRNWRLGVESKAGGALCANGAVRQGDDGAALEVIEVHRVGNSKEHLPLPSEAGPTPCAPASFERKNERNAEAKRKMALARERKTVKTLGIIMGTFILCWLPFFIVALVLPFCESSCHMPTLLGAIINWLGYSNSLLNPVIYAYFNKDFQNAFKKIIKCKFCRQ

MDA-MB-231 = test: Multiplex cytotoxicity assay; assay type: cell-based; conditions: Homo sapiens, MDA-MB-231, read-out: IC50 MDA-MB-231
[11] = biological target: SERT (serotonin transporter) (Homo sapiens, UniProt P31645); test: NIMH PDSP secondary binding assay
A549 = test: Multiplex cytotoxicity assay; assay type: cell-based; conditions: Homo sapiens, A549, read-out: IC50 A549
MCF-7 = test: Multiplex cytotoxicity assay; assay type: cell-based; conditions: Homo sapiens, MCF7, read-out: IC50 MCF-7
H1299 = test: Multiplex cytotoxicity assay; assay type: cell-based; conditions: Homo sapiens, NCI-H1299, read-out: IC50 H1299
[12] = biological target: M4 (muscarinic acetylcholine receptor type 4) (Homo sapiens, UniProt P08173); test: NIMH PDSP secondary binding assay
HCT-15 = test: Multiplex cytotoxicity assay; assay type: cell-based; conditions: Homo sapiens, HCT-15, read-out: IC50 HCT-15
sigma-1 receptor = sigma-1 receptor (Cavia porcellus, UniProt Q60492); test: Saturation binding of [3H]-; design: species or system guinea pig; conditions: GPLM; increasing concentrations of 2b
[13] = biological target: 5HT1B (serotonin receptor subtype 1B) (Homo sapiens, UniProt P28222); test: NIMH PDSP secondary binding assay
[14] = biological target: 5HT7 (serotonin receptor subtype 7) (Homo sapiens, UniProt P34969); test: NIMH PDSP secondary binding assay
SK-OV-3 = test: Multiplex cytotoxicity assay; assay type: cell-based; conditions: Homo sapiens, SK-OV-3, read-out: IC50 SK-OV-3
MCF-10A = test: Multiplex cytotoxicity assay; assay type: cell-based; conditions: Homo sapiens, read-out: IC50 MCF-10A
SF-268 = test: Multiplex cytotoxicity assay; assay type: cell-based; conditions: Homo sapiens, SF-268, read-out: IC50 SF-268
Du145 = test: Multiplex cytotoxicity assay; assay type: cell-based; conditions: Homo sapiens, DU-145, read-out: IC50 Du145
[15] = biological target: M3 (muscarinic acetylcholine receptor type 3) (Homo sapiens, UniProt P20309); test: NIMH PDSP secondary binding assay
NCI-H460 = test: Multiplex cytotoxicity assay; assay type: cell-based; conditions: Homo sapiens, NCI-H460, read-out: IC50 NCI-H460
[16] = biological target: M5 (muscarinic acetylcholine receptor type 5) (Homo sapiens, UniProt P08912); test: NIMH PDSP secondary binding assay
[17] = biological target: β-3 (β-adrenergic receptor subtype 3) (Homo sapiens, UniProt P13945); test: NIMH PDSP secondary binding assay
Sig-2R, sigma-2 receptor = biological target: T4, Sig-2R, sigma-2 receptor (Rattus norvegicus, UniProt Q5U3Y7); test: NIMH PDSP secondary binding assay
T4 sequence (Q5U3Y7 1-176): T1 sequence (Q5U3Y7 1-176)

[18] = test system: tumors grown from the mouse mammary adenocarcinoma cell line 66; conditions: nude mice with tumors from mouse mammary adenocarcinoma cell line 66; cited from earlier work
caspases 3/7 [19] = test: Caspase activation by rimcazole in cancer cell lines; assay type: cell-based; conditions: any cancer cell lines tested, including MCF-7
caspases 3/7 [20] = conditions: MCF-7 and MDA MB 468 mammary carcinoma; ref Spruce et al. 2004; cited from earlier work
[21] = read-out: KI pure sigma-1 receptor, Table 1, [3H]-(+)-pentazocine displacement

Chain of pure guinea pig sigma-1 receptor (Q60492 whole entry): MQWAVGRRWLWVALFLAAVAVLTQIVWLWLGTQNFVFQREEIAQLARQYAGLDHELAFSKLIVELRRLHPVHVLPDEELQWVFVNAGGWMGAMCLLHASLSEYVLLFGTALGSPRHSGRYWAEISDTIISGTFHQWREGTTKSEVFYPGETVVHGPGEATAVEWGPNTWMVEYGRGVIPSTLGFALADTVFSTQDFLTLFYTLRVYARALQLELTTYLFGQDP
Chain of Kv1.4 potassium channel (P15385 whole entry): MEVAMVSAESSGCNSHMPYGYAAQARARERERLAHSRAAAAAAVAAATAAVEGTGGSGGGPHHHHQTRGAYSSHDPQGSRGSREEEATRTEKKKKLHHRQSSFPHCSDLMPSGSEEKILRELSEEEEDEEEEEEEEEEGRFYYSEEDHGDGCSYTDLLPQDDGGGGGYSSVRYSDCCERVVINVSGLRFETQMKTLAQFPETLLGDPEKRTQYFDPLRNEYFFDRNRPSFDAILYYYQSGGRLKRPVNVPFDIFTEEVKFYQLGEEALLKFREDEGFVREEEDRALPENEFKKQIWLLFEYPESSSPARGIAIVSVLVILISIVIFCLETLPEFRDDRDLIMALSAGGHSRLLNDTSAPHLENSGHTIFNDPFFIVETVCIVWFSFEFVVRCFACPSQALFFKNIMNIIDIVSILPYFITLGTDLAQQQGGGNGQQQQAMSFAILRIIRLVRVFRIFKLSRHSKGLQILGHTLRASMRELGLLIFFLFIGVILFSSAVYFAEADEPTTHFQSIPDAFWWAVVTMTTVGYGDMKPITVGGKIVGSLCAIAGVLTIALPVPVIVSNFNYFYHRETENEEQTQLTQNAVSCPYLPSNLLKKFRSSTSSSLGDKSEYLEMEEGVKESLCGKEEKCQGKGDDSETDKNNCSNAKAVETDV
Chain of Kv1.4 potassium channel (Q9R0C9 whole entry): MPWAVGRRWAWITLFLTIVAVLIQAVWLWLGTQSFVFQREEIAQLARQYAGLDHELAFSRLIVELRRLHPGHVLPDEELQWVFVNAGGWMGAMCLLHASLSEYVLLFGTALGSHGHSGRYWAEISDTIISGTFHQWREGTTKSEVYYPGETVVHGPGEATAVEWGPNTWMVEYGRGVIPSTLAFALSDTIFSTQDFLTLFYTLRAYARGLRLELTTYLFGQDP
Chain of H3 (histamine receptor type 3) (Q9Y5N1 whole entry): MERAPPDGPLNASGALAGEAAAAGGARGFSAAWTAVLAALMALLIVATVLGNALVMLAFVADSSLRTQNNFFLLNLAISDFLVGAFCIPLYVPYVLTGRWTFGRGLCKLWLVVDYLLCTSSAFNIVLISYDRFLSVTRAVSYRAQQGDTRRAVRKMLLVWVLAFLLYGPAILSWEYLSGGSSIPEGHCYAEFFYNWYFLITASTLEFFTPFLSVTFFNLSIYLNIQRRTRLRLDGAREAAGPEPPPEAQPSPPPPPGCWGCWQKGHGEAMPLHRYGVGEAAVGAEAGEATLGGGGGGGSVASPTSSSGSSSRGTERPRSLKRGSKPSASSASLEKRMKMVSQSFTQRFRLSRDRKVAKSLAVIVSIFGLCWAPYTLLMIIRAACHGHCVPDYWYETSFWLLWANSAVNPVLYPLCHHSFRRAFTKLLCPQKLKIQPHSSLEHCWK
Chain of sigma-1 receptor (Q60492 whole entry): as the sequence (Q60492 whole entry) above
Chain of NET (norepinephrine transporter) (P23975 whole entry, species assumed): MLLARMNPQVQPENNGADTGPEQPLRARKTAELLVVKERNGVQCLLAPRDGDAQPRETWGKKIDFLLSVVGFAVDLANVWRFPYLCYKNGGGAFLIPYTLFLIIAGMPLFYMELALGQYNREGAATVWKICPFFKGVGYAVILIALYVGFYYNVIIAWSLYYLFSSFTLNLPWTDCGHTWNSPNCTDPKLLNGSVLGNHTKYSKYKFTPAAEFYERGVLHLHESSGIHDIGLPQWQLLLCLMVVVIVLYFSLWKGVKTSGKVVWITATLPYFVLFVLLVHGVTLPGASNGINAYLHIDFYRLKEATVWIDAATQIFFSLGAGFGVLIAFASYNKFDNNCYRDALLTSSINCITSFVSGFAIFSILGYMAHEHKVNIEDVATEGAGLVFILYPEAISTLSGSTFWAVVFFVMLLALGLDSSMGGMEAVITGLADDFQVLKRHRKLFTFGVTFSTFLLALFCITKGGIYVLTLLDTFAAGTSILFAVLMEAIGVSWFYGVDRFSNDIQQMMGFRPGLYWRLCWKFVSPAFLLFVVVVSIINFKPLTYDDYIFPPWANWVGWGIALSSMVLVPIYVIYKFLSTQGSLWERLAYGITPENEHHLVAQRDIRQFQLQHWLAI
Chain of D1 (dopamine receptor type 1) (P21728 whole entry): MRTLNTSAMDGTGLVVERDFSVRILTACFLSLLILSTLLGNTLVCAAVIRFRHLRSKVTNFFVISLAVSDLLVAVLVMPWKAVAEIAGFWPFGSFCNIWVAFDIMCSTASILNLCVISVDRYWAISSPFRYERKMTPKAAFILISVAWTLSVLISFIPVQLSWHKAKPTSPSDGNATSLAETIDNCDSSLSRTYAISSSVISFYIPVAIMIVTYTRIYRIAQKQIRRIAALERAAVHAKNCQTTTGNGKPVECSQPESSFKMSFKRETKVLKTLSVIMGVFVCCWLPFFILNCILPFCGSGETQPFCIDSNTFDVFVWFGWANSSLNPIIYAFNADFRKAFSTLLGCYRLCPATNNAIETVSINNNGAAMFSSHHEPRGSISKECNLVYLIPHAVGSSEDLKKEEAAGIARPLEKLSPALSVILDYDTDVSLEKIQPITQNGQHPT
Chain of H2 (histamine receptor type 2) (P25021 whole entry): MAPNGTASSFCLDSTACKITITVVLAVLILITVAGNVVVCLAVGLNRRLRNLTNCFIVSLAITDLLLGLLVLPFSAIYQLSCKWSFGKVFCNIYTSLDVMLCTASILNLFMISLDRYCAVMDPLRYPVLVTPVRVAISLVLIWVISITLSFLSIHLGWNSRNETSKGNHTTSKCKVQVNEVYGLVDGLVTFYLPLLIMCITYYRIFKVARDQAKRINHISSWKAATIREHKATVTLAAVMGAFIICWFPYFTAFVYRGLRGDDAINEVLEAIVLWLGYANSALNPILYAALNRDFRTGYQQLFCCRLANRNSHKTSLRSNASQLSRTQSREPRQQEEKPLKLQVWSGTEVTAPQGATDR
Chain of Sig-1R, sigma-1 receptor (Q9R0C9 whole entry): as the sequence (Q9R0C9 whole entry) above
Chain of β-2 (β-adrenergic receptor subtype 2) (P07550 whole entry): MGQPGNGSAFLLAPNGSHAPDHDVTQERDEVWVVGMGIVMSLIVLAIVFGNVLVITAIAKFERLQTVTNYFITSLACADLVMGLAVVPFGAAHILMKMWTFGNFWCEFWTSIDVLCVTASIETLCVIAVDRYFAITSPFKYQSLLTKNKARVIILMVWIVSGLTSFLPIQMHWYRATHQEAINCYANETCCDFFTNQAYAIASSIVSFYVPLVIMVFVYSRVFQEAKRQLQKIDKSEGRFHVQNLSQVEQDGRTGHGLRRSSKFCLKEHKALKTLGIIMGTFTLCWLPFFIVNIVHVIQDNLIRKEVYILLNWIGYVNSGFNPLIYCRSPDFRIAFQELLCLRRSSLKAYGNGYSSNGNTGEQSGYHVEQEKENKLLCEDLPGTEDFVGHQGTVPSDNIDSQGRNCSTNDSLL
Chain of M4 (muscarinic acetylcholine receptor type 4) (P08173 whole entry): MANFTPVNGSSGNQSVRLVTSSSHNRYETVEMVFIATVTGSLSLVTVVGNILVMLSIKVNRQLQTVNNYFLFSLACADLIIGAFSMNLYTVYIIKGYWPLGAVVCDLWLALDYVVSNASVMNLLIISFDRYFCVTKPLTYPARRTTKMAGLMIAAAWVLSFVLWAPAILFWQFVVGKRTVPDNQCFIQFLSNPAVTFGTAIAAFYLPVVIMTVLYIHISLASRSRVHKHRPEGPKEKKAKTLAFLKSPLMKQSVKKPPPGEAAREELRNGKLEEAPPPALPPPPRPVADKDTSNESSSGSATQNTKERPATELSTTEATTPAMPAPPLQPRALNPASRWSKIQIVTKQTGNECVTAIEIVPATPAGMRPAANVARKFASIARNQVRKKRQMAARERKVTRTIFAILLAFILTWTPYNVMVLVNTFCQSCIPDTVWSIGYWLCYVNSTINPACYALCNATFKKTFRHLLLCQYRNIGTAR
Chain of M3 (muscarinic acetylcholine receptor type 3) (P20309 whole entry): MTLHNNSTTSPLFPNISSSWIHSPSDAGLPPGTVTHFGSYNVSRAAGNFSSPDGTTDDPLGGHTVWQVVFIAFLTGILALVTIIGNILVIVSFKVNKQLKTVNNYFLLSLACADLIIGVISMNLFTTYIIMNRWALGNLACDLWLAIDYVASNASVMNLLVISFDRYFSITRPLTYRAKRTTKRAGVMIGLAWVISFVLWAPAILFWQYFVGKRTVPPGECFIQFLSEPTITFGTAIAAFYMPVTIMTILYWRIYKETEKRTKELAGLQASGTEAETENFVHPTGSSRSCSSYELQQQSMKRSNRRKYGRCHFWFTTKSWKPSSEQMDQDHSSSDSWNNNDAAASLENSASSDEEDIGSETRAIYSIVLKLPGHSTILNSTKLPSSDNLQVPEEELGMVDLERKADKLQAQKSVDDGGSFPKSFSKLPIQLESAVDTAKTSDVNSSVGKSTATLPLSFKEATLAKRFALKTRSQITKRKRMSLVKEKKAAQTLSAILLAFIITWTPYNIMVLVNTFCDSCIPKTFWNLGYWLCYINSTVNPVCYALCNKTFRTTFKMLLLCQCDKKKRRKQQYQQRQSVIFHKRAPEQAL
Chain of β-3 (β-adrenergic receptor subtype 3) (P13945 whole entry): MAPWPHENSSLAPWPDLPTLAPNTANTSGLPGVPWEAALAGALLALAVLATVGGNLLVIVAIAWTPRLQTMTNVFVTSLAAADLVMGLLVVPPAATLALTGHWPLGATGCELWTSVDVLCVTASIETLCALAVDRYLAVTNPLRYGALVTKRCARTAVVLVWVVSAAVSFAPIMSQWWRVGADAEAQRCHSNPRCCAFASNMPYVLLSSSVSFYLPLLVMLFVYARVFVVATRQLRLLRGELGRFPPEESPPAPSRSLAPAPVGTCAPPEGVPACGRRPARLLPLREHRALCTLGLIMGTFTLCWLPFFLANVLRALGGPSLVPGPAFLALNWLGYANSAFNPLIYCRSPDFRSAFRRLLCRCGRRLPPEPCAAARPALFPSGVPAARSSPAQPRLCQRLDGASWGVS

**Q.** For `CCCCNCCCc1ccccc1` [1a, N-(3-Phenylpropyl)butan-1-amine], which “KI sigma-2 sites” value [1] is on record?
**A.** nanomolar affinities

**Q.** What about the sigma-2/sigma-1 [1] of the same compound?
**A.** 2

**Q.** What about the Ki [2] of the same compound?
**A.** 0.2 ± 0.02 µM

**Q.** What about the IC50 (Kv1.4 potassium channel) of the same compound?
**A.** 50 µM

**Q.** Which “KI sigma-2 sites” value [1] does the source give for `CCCCNCCCc1ccc([N+](=O)[O-])cc1` [1b, N-(3-(4-Nitrophenyl)propyl)butan-1-amine] here?
**A.** nanomolar affinities

**Q.** And the sigma-2/sigma-1 [1]?
**A.** 7

**Q.** Which Ki [3] does the source give for `CCCCCCCNCCCc1ccc([N+](=O)[O-])cc1` [2b, N-(3-(4-Nitrophenyl)propyl)heptan-1-amine] here?
**A.** 4 µM

**Q.** What about the IC50 (HT-29) of the same compound?
**A.** 30 ± 1 µM

**Q.** What about the “activation of caspases 3/7, 8, and 9” value (caspases 3/7, 8, and 9) of the same compound?
**A.** did not activate

**Q.** And the Ki [4]?
**A.** > 10 µM

**Q.** What about the Ki [5] of the same compound?
**A.** > 10 µM

**Q.** And the Ki (Sig-1R, sigma-1 receptor)?
**A.** 0.02 µM

**Q.** And the Ki [6]?
**A.** > 10 µM

**Q.** What about the Ki [7] of the same compound?
**A.** 1.1 µM

**Q.** What about the Ki [8] of the same compound?
**A.** > 10 µM

**Q.** And the “KI sigma-2 sites” value [1]?
**A.** nanomolar affinities

**Q.** What about the sigma-2/sigma-1 [1] of the same compound?
**A.** 1

**Q.** What about the Ki [9] of the same compound?
**A.** 0.6 µM

**Q.** What about the Ki ([10]; NIMH PDSP, [3H]8-OH-DPAT/0.5 nM) of the same compound?
**A.** 0.05 µM

**Q.** And the Ki ([10]; text statement on secondary screen)?
**A.** < 0.05 µM

**Q.** And the IC50 (MDA-MB-231)?
**A.** 30 ± 2 µM

**Q.** What about the Ki [11] of the same compound?
**A.** 1.1 µM

**Q.** What about the IC50 (A549) of the same compound?
**A.** 55 ± 5 µM

**Q.** And the IC50 (MCF-7)?
**A.** 21 ± 1 µM

**Q.** What about the IC50 (H1299) of the same compound?
**A.** 28 ± 1 µM

**Q.** What about the Ki [12] of the same compound?
**A.** 1.4 µM

**Q.** What about the IC50 (HCT-15) of the same compound?
**A.** > 100 µM

**Q.** And the “Bmax of [3H]-(+)-pentazocine in the presence of 2b” value (sigma-1 receptor)?
**A.** unchanged

**Q.** What about the Ki [13] of the same compound?
**A.** > 10 µM

**Q.** And the Ki [14]?
**A.** 0.9 µM

**Q.** And the IC50 (SK-OV-3)?
**A.** 73 ± 8 µM

**Q.** And the IC50 (MCF-10A)?
**A.** 53 ± 6 µM

**Q.** What about the IC50 (SF-268) of the same compound?
**A.** 40 ± 3 µM

**Q.** What about the IC50 (Du145) of the same compound?
**A.** 29 ± 1 µM

**Q.** What about the Ki [15] of the same compound?
**A.** 1.1 µM

**Q.** What about the IC50 (NCI-H460) of the same compound?
**A.** 38 ± 4 µM

**Q.** And the Ki [16]?
**A.** 0.3 µM

**Q.** What about the Ki [17] of the same compound?
**A.** > 10 µM

**Q.** What about the Ki (Sig-2R, sigma-2 receptor) of the same compound?
**A.** 0.014 µM

**Q.** What does the source list for `CCCCCCCCCCCCCCCCCCNCCCc1ccccc1` [4a, N-(3-Phenylpropyl)octadecan-1-amine]?
**A.** KI sigma-2 sites [1]: micromolar affinities; sigma-2/sigma-1 [1]: 0.6

**Q.** Which “KI sigma-2 sites” value [1] does the source give for `CCCCCCCCCCCCCCCCCCNCCCc1ccc([N+](=O)[O-])cc1` [4b, N-(3-(4-Nitrophenyl)propyl)octadecan-1-amine] here?
**A.** micromolar affinities

**Q.** What about the sigma-2/sigma-1 [1] of the same compound?
**A.** 0.3

**Q.** And the Ki [2]?
**A.** 0.042 ± 0.007 µM

**Q.** For `CCCCCN` [Amylamine], which Ki [2, 21] is on record?
**A.** 167 ± 35 µM

**Q.** For `CCCCN` [Butylamine, reference compound], which Ki [2, 21] is on record?
**A.** 477 ± 67 µM

**Q.** And the “average inhibition of the Kv1.4 potassium channel” value (Kv1.4 potassium channel)?
**A.** 21%

**Q.** Which “average inhibition of the Kv1.4 potassium channel” value (Kv1.4 potassium channel) does the source give for `CCCCCCCN` [Heptylamine, reference compound] here?
**A.** 15%

**Q.** For `CCCCCCCCN` [Octylamine], which Ki [2, 21] is on record?
**A.** 6 ± 3 µM

**Q.** For `CCCCCCCCCCCCCCN` [Tretradecylamine], which Ki [2, 21] is on record?
**A.** 1 ± 0.03 µM

**Q.** With `O=C(Cc1cccc(Br)c1)NC1CCN(Cc2ccc([18F])cc2)CC1` [[^18F]FBPBPA, N-[1-(4′-[^18F]fluorobenzyl)piperidin-4-yl]-3-bromophenylacetamide] as the compound, how does the “receptor-specific uptake of the tracer in the brain” value [18] read?
**A.** ~ 60%

**Q.** And the “receptor-specific uptake of the tracer in the tumor” value [18]?
**A.** ~ 25%

**Q.** For `C[C@@H]1CN(CCCn2c3ccccc3c3ccccc32)C[C@H](C)N1` [rimcazole], which “activation of caspases 3/7” value (caspases 3/7 [19]) is on record?
**A.** not found to activate

**Q.** What about the “activation of caspases 3/7” value (caspases 3/7 [20]) of the same compound?
**A.** activate
